The assay deals with T1, human oxytocin receptor (Homo sapiens, UniProt P30559).
T1 construct: host or cells: CHO cells, stably transfected (pcDNA3.1 vector)
T1 sequence (P30559 1-389): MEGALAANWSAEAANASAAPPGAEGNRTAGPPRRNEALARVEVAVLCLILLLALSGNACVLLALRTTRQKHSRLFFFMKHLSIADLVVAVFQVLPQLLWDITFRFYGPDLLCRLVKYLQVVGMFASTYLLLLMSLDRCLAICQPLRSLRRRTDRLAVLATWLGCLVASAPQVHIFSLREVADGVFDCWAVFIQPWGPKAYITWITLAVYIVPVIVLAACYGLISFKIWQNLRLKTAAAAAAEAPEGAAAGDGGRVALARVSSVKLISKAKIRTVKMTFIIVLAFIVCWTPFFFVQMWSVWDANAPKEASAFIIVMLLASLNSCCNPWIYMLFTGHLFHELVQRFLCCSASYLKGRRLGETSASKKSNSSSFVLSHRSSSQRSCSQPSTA
The assay is described as follows: Oxytocin binding in CHO cell membranes expressing human oxytocin receptors ([3H]oxytocin radioligand binding). The note with it: 100 nM, read-out: OT % inhibition @ 100 nM. The method, then: Oxytocin Binding in Chinese Hamster Ovary Cell Membranes Expressing Human Oxytocin Receptors
Cell Culture medium (e.g. 30 mL for 1:30 split) is immediately added and mixed well to inactivate trypsin. 1 mL of detached cells is added to new culture flasks containing fresh Cell Culture medium (e.g. into 25 mL per T-150 flask), and mixed gently. The cells are incubated at 37° C. in 5% CO2. The medium is changed at 3 to 4 days interval (or as appropriate). […] All steps are done under sterile conditions.
The cells are washed twice gently with Hank's Balanced Salt solution (e.g., use 10 mL per T-150 flask). […] The contents are transferred to centrifuge tubes (50 mL size) kept in ice bath. All subsequent steps are done at 4° C. The tubes are centrifuged at 300×g for 15 min (1380 rpm on SORVAL, Model RT6000D, using rotor for 50 mL tubes). The supernatant is discarded and the cells suspended in homogenizing buffer (10 mM Tris-HCl containing 0.25 M sucrose and 1 mM EDTA, pH 7.4) ensuring that the volume of the buffer is about ten times the volume of the cell pellet. The cells are pooled into a centrifuge tube (50 mL) and homogenized with a Polytron at setting 6 for 10 sec. The homogenate is transferred into a Potter-Elvjehm homogenizer and homogenized with 3 strokes. The homogenate is centrifuged at 1500×g for 10 min at 4° C. (3100 rpm using SORVAL, model RT6000D, using a rotor for 50 mL tubes). The pellet is discarded. The supernatant is centrifuged at 100,000×g for 60 min. at 4° C. (Beckman L8-80M ultracentrifuge; spin at 37,500 rpm with rotor type 70 Ti for 50 mL tubes; 38,000 rpm with rotor type 8OTi for 15 mL tubes; or 35,800 rpm with rotor type 45Ti). The supernantant is discarded and the pellet suspended in 3 to 4 mL of Tris buffer (50 mM TRIS-HCl, pH 7.4). The protein content is estimated by the Bradford or Lowry method. The volume of the membrane suspension is adjusted with the membrane buffer (50 mM Tris-HCl containing 0.1% BSA and 0.1 mM PMSF) to give 3.0 mg/mL (or as appropriate) of protein. The membranes are aliquoted and stored at −70° C.
In wells of a 96-well format microtiter plate, is added 90, 110 or 130 μL (to make up a final volume of 200 μL) of assay buffer containing 50 mM of Tris-HCl (pH 7.4), […], 1 mg % aprotinin, 1 mg % leupeptin, 2 mg % 1,10-phenanthroline, 10 mg % trypsin inhibitor, and 0.1 mM PMSF. The inhibitors are added on the day of the experiment. The components are mixed at room temperature, and then kept in ice bath following adjustment of the pH to 7.4. […] For oxytocin and other peptide ligands, 20 μL of 50% DMSO is added and the assay buffer volume is adjusted accordingly. To each well is added 50 μL of frozen membrane suspension thawed immediately prior to use and diluted in assay buffer to the required concentration (equivalent to 25 to 50 μg of protein/well as needed). 20 μL of 8 nM [^3H]oxytocin in the assay buffer, prepared just before use is added and incubated at room temperature for 60 min. shaking the plate on a mechanical shaker for the first 15 min. The incubation is stopped by rapid filtration of the plate contents followed by washing with ice-cold buffer (50 mM Tris-HCl, pH 7.4) using a cell harvester (Tomtek and Printed filtermat-B filter paper). The filter paper is thoroughly dried (7–12 min. in a microwave oven) and impregnated with MeltiLex B/H melt-on scintillation wax sheets and the radioactivity counted in a betaplate scintillation counter.
Binding data is either reported as percent inhibition at a certain concentration or if an IC50 was calculated, as a nanomolar concentration.
Turning to `COc1ccccc1-c1ccc(C(=O)N2Cc3ccc(C(=O)NCc4ccccn4)n3Cc3ccccc32)cc1C` [Example 24, 10-[(2′-Methoxy-2-methyl-[1,1′-biphenyl]-4-yl)carbonyl]-N-(2-pyridinylmethyl)-10,11-dihydro-5H-pyrrolo[2,1-c][1,4]benzodiazepine-3-carboxamide], the inhibition at 0.1 µM amounted to 50%.

With `COc1cccc(-c2ccc(C(=O)N3Cc4ccc(C(=O)NCc5ccccn5)n4Cc4ccccc43)cc2C)c1` [Example 25, 10-[(3′-Methoxy-2-methyl-[1,1′-biphenyl]-4-yl)carbonyl]-N-(2-pyridinylmethyl)-10,11-dihydro-5H-pyrrolo[2,1-c][1,4]benzodiazepine-3-carboxamide], the inhibition at 0.1 µM amounted to 50%.

For the compound `COc1ccccc1-c1ccc(C(=O)N2Cc3ccc(C(=O)NCc4ccccn4)n3Cc3ccccc32)cc1` [Example 26, 10-[(2′-Methoxy-[1,1′-biphenyl]-4-yl)carbonyl]-N-(2-pyridinylmethyl)-10,11-dihydro-5H-pyrrolo[2,1-c][1,4]benzodiazepine-3-carboxamide], the inhibition at 0.1 µM is 47%.

Take `Cc1ccccc1-c1ccc(C(=O)N2Cc3ccc(C(=O)NCc4ccccn4)n3Cc3ccccc32)cc1` [Example 27, 10-[(2′-Methyl-[1,1′-biphenyl]-4-yl)carbonyl]-N-(2-pyridinylmethyl)-10,11-dihydro-5H-pyrrolo[2,1-c][1,4]benzodiazepine-3-carboxamide]: the inhibition at 0.1 µM stood at 22%.

On to `COc1cc(C(=O)N2Cc3ccc(C(=O)NCc4ccccn4)n3Cc3ccccc32)ccc1-c1ccccc1C` [Example 28, 10-[(2-Methoxy-2′-methyl-[1,1′-biphenyl]-4-yl)carbonyl]-N-(2-pyridinylmethyl)-10,11-dihydro-5H-pyrrolo[2,1-c][1,4]benzodiazepine-3-carboxamide], for which the inhibition at 0.1 µM turned out to be 50%.

As for `COc1cc(-c2ccccc2C)c(Cl)cc1C(=O)N1Cc2ccc(C(=O)NCc3ccccn3)n2Cc2ccccc21` [Example 29, 10-[(6-Chloro-3-methoxy-2′-methyl-[1,1′-biphenyl]-4-yl)carbonyl]-N-(2-pyridinylmethyl)-10,11-dihydro-5H-pyrrolo[2,1-c][1,4]benzodiazepine-3-carboxamide], the inhibition at 0.1 µM was determined as 42%.

In the case of `COc1cccc(-c2cc(OC)c(C(=O)N3Cc4ccc(C(=O)NCc5ccccn5)n4Cc4ccccc43)cc2Cl)c1` [Example 30, 10-[(6-Chloro-3,3′-dimethoxy-[1,1′-biphenyl]-4-yl)carbonyl]-N-(2-pyridinylmethyl)-10,11-dihydro-5H-pyrrolo[2,1-c][1,4]benzodiazepine-3-carboxamide], the inhibition at 0.1 µM was found to be 25%.

Take `COc1cc(C(=O)N2Cc3ccc(C(=O)NCc4ccccn4)n3Cc3ccccc32)ccc1-c1cccc2ccccc12` [Example 31, 10-[3-Methoxy-4-(naphthalen-1-yl)benzoyl]-N-(2-pyridinylmethyl)-10,11-dihydro-5H-pyrrolo[2,1-c][1,4]benzodiazepine-3-carboxamide]: the inhibition at 0.1 µM amounted to 18%.

Consider `COc1ccccc1-c1ccc(C(=O)N2Cc3ccc(C(=O)NCc4ccccn4)n3Cc3ccccc32)cc1OC` [Example 32, 10-[(2,2′-Dimethoxy-[1,1′-biphenyl]-4-yl)carbonyl]-N-(2-pyridinylmethyl)-10,11-dihydro-5H-pyrrolo[2,1-c][1,4]benzodiazepine-3-carboxamide], for which the inhibition at 0.1 µM was 47%.

In the case of `COc1cccc(-c2ccc(C(=O)N3Cc4ccc(C(=O)NCc5ccccn5)n4Cc4ccccc43)cc2OC)c1` [Example 33, 10-[(2,3′-Dimethoxy-[1,1′-biphenyl]-4-yl)carbonyl]-N-(2-pyridinylmethyl)-10,11-dihydro-5H-pyrrolo[2,1-c][1,4]benzodiazepine-3-carboxamide], the inhibition at 0.1 µM was found to be 42%.

As to `O=C(NCc1ccccn1)c1ccc2n1Cc1ccccc1N(C(=O)c1ccc(-c3cccc4ccccc34)cc1Cl)C2` [Example 34, 10-[2-Chloro-4-(naphthalen-1-yl)benzoyl]-N-(2-pyridinylmethyl)-10,11-dihydro-5H-pyrrolo[2,1-c][1,4]benzodiazepine-3-carboxamide], the inhibition at 0.1 µM amounted to 5%.

What is called inhibition is the percentage by which the read-out fell short of the control.

(Values after patent US7064120B2, “Tricyclic pyridyl carboxamides and derivatives thereof tocolytic oxytocin receptor antagonists” (Wyeth, priority 2001, dated 2006).)
